Source: PMC10338423, “Synthesis and preclinical evaluation of a novel fluorine-18 labeled small-molecule PET radiotracer for imaging of CXCR3 receptor in mouse models of atherosclerosis” (EJNMMI Research, 2023)

Tests used:
[1] = Biodistribution study in normal C57BL/6 mice; format: in vivo, mouse
Description: Biodistribution studies were also performed to discover the drug distribution within normal mice. 17-week-old male and female C57BL/6 mice were purchased to match the age of the imaging study group. [^18F]1 was intravenously injected into these mice (N = 4/time point), then they were sacrificed at 10, 30, and 60 min after the injection. Their major organs, including the brain, blood, lung, liver, stomach, heart, spleen, kidney, muscle, bone, large intestine, small intestine, aorta, liquinal lymph nodes (LN), interscapular BAT, and tail, were harvested. Their radioactivity was counted by an automated γ-counter. The biodistribution was calculated as an average of the percent injected dose per gram tissue (%ID/g tissue) where the counted radioactivity of each organ was divided by the weight of each tissue and the total radioactivity that circulated in the mouse body at the time of the euthanasia.
Seventeen-week-old male and female C57BL/6 mice were purchased to match the age of PET imaging mice. They were anesthetized in the anesthesia chamber using 3% isoflurane in oxygen and received 0.74–1.11 MBq of [^18F]1 in 100 μL of 5–10% EtOH in saline containing 0.5% sodium ascorbate. The injected mice were returned to their cages and free until the time of the study. At 10, 30, and 60 min after the [^18F]1 administration, each mouse (N = 4/time point) was anesthetized again and euthanized by cervical dislocation followed by cardiac puncture to take a blood sample. Then, the following organs were harvested: the brain, blood, heart, liver, lung, stomach, large intestine, small intestine, spleen, kidney, bone, muscle, liquinal LN, interscapular BAT, and tail. The radioactivity of each organ was counted by a PerkinElmer Wallac 1480 Wizard^3 Gamma Counter (Waltham, MA). The whole radioactivity that went into the circulation of the mouse was calculated by subtracting the residual radioactivity in the tail from the injected radioactivity. Therefore, the biodistribution was calculated as an average of the percent injected dose per gram of tissue (%ID/g tissue) by dividing the measured radioactivity by the whole radioactivity that actually went into the body and the weight of the tissue.

[2] = Stability of formulated radiotracer (HPLC); format: physicochemical; conditions: formulated in 10% EtOH/0.9% saline containing 0.5% sodium ascorbate
Description: The addition of AcOH and the high temperature was necessary for an improved RCC. A usual C18 SPE workup followed by semi-preparative reverse phase HPLC purification afforded [^18F]1 in RCY of 13 ± 2% (n = 10) at the end of synthesis (EOS). The semi-preparative HPLC chromatograms of [^18F]1 is shown in Additional file 1: Fig. S1(a). The HPLC purification was performed using a Phenomenex Gemini C18 Semi-preparative column (5 µm, 250 × 10 mm) equipped with UV (254 nm) and radioactivity detectors by eluting with an isocratic mobile phase composed of 65% MeCN, 5% MeOH, 30% water, and 0.1% triethylamine (NEt3) at a flow rate of 5 mL/min. The radioactive [^18F]1 was collected between 16 and 17 min and was well-separated from the rest of the UV and radioactivity peaks. After the purification, the collected product was formulated in 10% EtOH/0.9% saline containing 0.5% sodium ascorbate. The total radiosynthesis time was 100 min at the EOS. The final reformulated aliquot was further characterized by HPLC analysis using a Phenomenex Gemini C18 analytical column (5 µm, 250 × 4.6 mm) equipped with UV and radioactivity detectors by eluting with the same HPLC solvent at a flow rate of 1 mL/min. The radioactive peak was eluted between 15 and 17 min. […]

[3] = 10 min p.i., i.v., C57BL/6 mice

- uptake in BAT [1, 3]: 15 % ID/g
- uptake in aorta [1, 3]: 13 % ID/g
- uptake in heart [1, 3]: 12 % ID/g
- uptake in kidney [1, 3]: 22 % ID/g
- uptake in liver [1, 3]: 12 % ID/g
- uptake in lung [1, 3]: 27 % ID/g
- uptake remaining relative to 10 min p.i. (lung, kidney, BAT, aorta, heart) ([1]; 30 min p.i.): ~ 60%
- uptake in liver ([1]; 30 min p.i., i.v., C57BL/6 mice): 22 % ID/g
- uptake remaining relative to 10 min p.i. (lung, kidney, BAT, aorta, heart) ([1]; 60 min p.i.): ~ 40%
- time radiotracer is stable [2]: more than 10 h
SMILES: CC[C@H]1CN(c2ncc(-c3nnco3)cc2Cl)CCN1C1CCN(Cc2ccc(Cl)cc2[18F])CC1 [[^18F]1]
